Laboratory results taken from patent US7335505B2, “Materials and methods relating to protein aggregation in neurodegenerative disease” (Wista Laboratories Ltd., priority 2001, dated 2008).

Columns and labels:
[1] = in vivo; cited from earlier work
[2] = Extent of reduction of diaminophenothiazines by DTT or ascorbic acid; assay type: physicochemical; settings: approx. 500:1 DTT excess, at 120 minutes
[3] = molecular target: T1, full-length human tau (T40) / 12 kD PHF-core tau fragment (Homo sapiens, UniProt P10636); settings: for inhibition of 12 kD:T40 ratio (in words): IPTG 0-50 μM, thionine and tolonium chloride with 200 μM DTT/ascorbate, chlorpromazine and tacrine without reducing agents
[4] = molecular target: T1, full-length human tau (T40) / 12 kD PHF-core tau fragment; assay: cell-based

T1 sequence (P10636 1-441 isoform P10636-8): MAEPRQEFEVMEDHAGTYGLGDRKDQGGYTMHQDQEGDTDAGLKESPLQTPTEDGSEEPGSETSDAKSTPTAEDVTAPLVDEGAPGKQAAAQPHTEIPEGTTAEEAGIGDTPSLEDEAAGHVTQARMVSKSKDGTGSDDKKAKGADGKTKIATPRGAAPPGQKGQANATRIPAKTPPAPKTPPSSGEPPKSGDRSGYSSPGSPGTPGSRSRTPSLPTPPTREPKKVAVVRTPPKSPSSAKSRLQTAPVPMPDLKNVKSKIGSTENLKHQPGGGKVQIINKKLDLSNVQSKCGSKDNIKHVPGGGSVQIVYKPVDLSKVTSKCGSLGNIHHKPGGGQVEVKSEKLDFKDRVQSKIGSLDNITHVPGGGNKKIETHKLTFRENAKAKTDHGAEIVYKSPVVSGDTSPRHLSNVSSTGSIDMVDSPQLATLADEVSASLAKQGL

| Compound | extent of reduction [2] | inhibition of 12 kD:T40 ratio (in words) [3] | Ki [4] [nM] | also measured |
| --- | --- | --- | --- | --- |
| Cc1cc2nc3ccc(N(C)C)cc3[s+]c2cc1N [tolonium chloride] | – | – | – | half live in blood [1]: approximately 100 minutes |
| Cc1cc(N(C)C)cc2[s+]c3cc(N(C)C)cc(C)c3nc12 [DMMB, 1,9-Dimethylmethylene Blue] | relatively little reduced | – | – | effect on tau degradation products within the cell ([3]; 1 μM DMMB, with and without IPTG induction): effectively abolished all degradation products; IC50 ([3]; read-out: cellular B50 value, base-line expression of the 12/14 kD species, concentration reducing 12 kD production to 50%): ~100 nM |
| CN(C)CCCN1c2ccccc2Sc2ccc(Cl)cc21 [chlorpromazine] | – | non-inhibitory | 2120 | – |

Now from value to compound, other results behind:

| extent of reduction [2] | inhibition of 12 kD:T40 ratio (in words) [3] | Ki [4] [nM] | Compound | also measured |
| --- | --- | --- | --- | --- |
| completely reduced | essentially identical inhibition | – | thionine | toxicity to cells of the assay [3]: toxic; conversion of induced T40 into the 12 kD fragment ([3]; 2 μM thionine (reduced), increasing IPTG): not converted into the 12 kD fragment |
| – | non-inhibitory | 802 | Nc1c2c(nc3ccccc13)CCCC2 [tacrine] | – |
